Experimental data published in patent US6187585A, “Oligonucleotide inhibition of epidermal growth factor receptor expression” (Isis Pharmaceuticals, Inc., priority 1999, dated 2001).
Strand notation (5' to 3'): a small letter for the sugar, then the base; units joined by * are phosphorothioate-linked, units joined directly phosphodiester-linked; [ ] holds rarer units or linkages, { } end groups; capitals alone tell only the bases. d = 2'-deoxy (DNA)

How the values were obtained:
EGFR protein = EGFR protein synthesis, metabolic labeling and immunoprecipitation, SKOV3 cells; assay type: cell-based, human; settings: 35S-methionine labeling, compared to untreated cells
Experimental: Human SKOV3 ovarian carcinoma cells were obtained from the American Type Culture Collection. They were grown in McCoy's 5A medium containing NaHCO3, 10% fetal bovine serum and antibiotics and routinely passaged. A549 human lung carcinoma cells were routinely passaged in DMEM medium supplemented with 10% fetal bovine serum.
SKOV3 cells were treated with the indicated oligonucleotides in serum-free, methionine-free OPTI-MEM® medium for 2.5 hours. The medium was then replaced with methionine-free OPTI-MEM® containing ^35 S-methionine (100 μCi/ml) and 2% dialyzed fetal bovine serum for 10 hours. Cell extracts were prepared as described by Kumar et al., Proc. Natl. Acad. Sci. USA, 1992, 89, 6599. Aliquots containing equal amounts of trichloroacetic acid-precipitable counts per minute were subjected to immunoprecipitation with anti-EGFR monoclonal antibody 528/rabbit anti-mouse IgG/protein A-Sepharose conjugate. Kumar et al., Proc. Natl. Acad. Sci. USA, 1992, 89, 6599 and Korutla et al., Carcinogenesis, 1995, 16, 1741. Lysates containing equal amounts of protein were also resolved on a 10% SDS-polyacrylamide gel and stained with Coomassie blue.
ISIS 10563, ISIS 12876 and ISIS 12877 were added to exponentially growing SKOV3 cells. Cells were metabolically labeled with ^35 S-methionine and newly synthesized EGFR protein was immunoprecipitated. […] Coomassie blue staining confirmed that proteins other than EGFR were not affected by treatment of cells with antisense oligonucleotides.

EGFR mRNA [1] = assay: EGFR mRNA inhibition, Northern blot, SKOV3 human ovarian carcinoma cells; assay type: cell-based; settings: for % Inhibition of EGFR mRNA (10 kb band): 300 nM oligonucleotide, 15 μg/ml LIPOFECTIN, relative to untreated control, normalized to β-actin
EGFR mRNA [2] = assay: EGFR mRNA inhibition, Northern blot, A549 human lung carcinoma cells; assay type: cell-based; settings: for % Inhibition of EGFR mRNA (10 kb band): 300 nM oligonucleotide, 15 μg/ml LIPOFECTIN, relative to untreated control, normalized to G3PDH
EGFR mRNA [3] = assay: EGFR mRNA, Northern blot, both cell types together (A549 and SKOV3); assay type: cell-based, human; settings: 300 nM
Experimental: SKOV3 and A549 cells were grown in T-75 flasks until 65-75% confluent. The cells were washed once with serum-free OPTI-MEM® medium (Life Technologies, Inc., Grand Island, N.Y.) and 5 ml of the serum-free OPTI-MEM® containing 15 μg/ml of LIPOFECTIN® reagent (a 1:1 liposome formulation of the cationic lipid DOTMA and DOPE, Life Technologies, Inc.) was added. At that time, 300 nM of oligonucleotide was added and swirled vigorously. After a 4-5 hour incubation at 37° C., the solution was removed and fresh maintenance medium containing 10% fetal bovine serum was added. The cells were again incubated overnight at 37° in 5% CO2, after which the cells were assayed for EGFR MRNA expression or cell growth.
Total mRNA was extracted from the cells. For SKOV3 cells, cells were washed twice with PBS and 1-2 ml of RNAZOL B® (Tel-Test, Inc., Friendswood Tex.) was added. An incubation at 4° C. for 5-30 minutes was done and the cells were scraped into an Eppendorf tube. This solution was frozen at -80° C. for 20 minutes, thawed and chloroform (200 μl/ml) was added. The solution was centrifuged at 12,000×g for 15 minutes at 4° C. and the aqueous layer was transferred to a clean Eppendorf tube. An equal volume of isopropanol was added and incubated at room temperature for 15 minutes. Another centrifugation at 12,000×g for 15 minutes at 4° C. was done. The pellet was washed with 500 μl of 75% ethanol and centrifuged at 7500×g for 5 minutes at 4° C. As much of the supernatant as possible was removed and the pellet was resuspended in 30 μl of double distilled water. For A549 cells, total mRNA was extracted using a guanidinium/cesium chloride extraction protocol as described by Dean et al., J. Biol. Chem., 1994, 269, 16416. Ten μg of this mRNA was resolved on a 1.0% agarose gel containing 3.0% formaldehyde and transferred to a nylon membrane. […] The membrane was exposed to autoradiography film at -80° C. and the MRNA bands quantitated using a densitometer (Molecular Dynamics). Blots were stripped of radioactivity by boiling and then reprobed with a ^32 P-labeled control probe which hybridized either to G3PDH (Clontech Laboratories, Inc., Palo Alto Calif.) or β-actin (Ambion, Austin Tex.).
Some of the oligonucleotides in Table 1 were tested for their ability to inhibit EGFR mRNA expression in A549 human lung carcinoma cells and SKOV3 human ovarian carcinoma cells, both of which overexpress the EGFR. […] Total RNA was extracted and quantitated by Northern blot analysis, using PCR-generated EGFR cDNA probes. Bands were quantitated on a densitometer and normalized to control probe bands (G3PDH for the A549 cells and β-actin for the SKOV3 cells). […]

EGFR tyrosine kinase = settings: cited from earlier work
A431 cells = settings: cited from earlier work
[4] = 300 nM, scrambled control, 10 kb band

## ISIS 12139: GAGTTCGCGTCCTTTCTCCA; scrambled control; phosphorothioate (all phosphorothioate, sugars by position and methylation of C not given here) [reference compound]
EGFR protein
  reduction of EGFR protein production / EGFR synthesis: 10%
EGFR mRNA [1]; [4]
  increase in EGFR mRNA compared to untreated controls: 39%
EGFR mRNA [2]; [4]
  increase in EGFR mRNA compared to untreated controls: 18%

## ISIS 12875: CCCCAGCAGCTCCCAUUGGG; 2'-fluoro; phosphorothioate; coding region, Ullrich 769-788 (all phosphorothioate, sugars by position and methylation of C not given here; 2'-fluoro modification, further chemistry not fully specified)
EGFR mRNA [3]
  reduction of EGFR mRNA expression, ranking in words: slightly less potent
EGFR mRNA [1]
  % Inhibition of EGFR mRNA (10 kb band): 57%
EGFR mRNA [2]
  % Inhibition of EGFR mRNA (10 kb band): 77%

## COc1cc2ncnc(Nc3cccc(Br)c3)c2cc1OC [PD153035]
EGFR tyrosine kinase
  inhibition of EGFR tyrosine kinase activity: inhibits EGFR tyrosine kinase activity
A431 cells
  inhibition of the growth of A431 cells in nude mice: can inhibit the growth of A431 cells in nude mice

## ISIS 10561: TGTCGGCCCCACAGGCTCGG; phosphorothioate 2'-deoxy; coding region, Ullrich 1110-1129 (antisense dT*dG*dT*dC*dG*dG*dC*dC*dC*dC*dA*dC*dA*dG*dG*dC*dT*dC*dG*dG)
EGFR mRNA [1]
  % Inhibition of EGFR mRNA (10 kb band): 45%
EGFR mRNA [2]
  % Inhibition of EGFR mRNA (10 kb band): greater than 50%
EGFR mRNA [2]; listed as 10561
  % Inhibition of EGFR mRNA (10 kb band): 75%

## ISIS 12877: CUCGGCTGACATTCCGGCAA; 2'-fluoro; phosphorothioate (all phosphorothioate, sugars by position and methylation of C not given here; 2'-fluoro modification, further chemistry not fully specified)
EGFR protein
  reduction of EGFR protein production / EGFR synthesis: 90-98%
EGFR mRNA [3]
  reduction of EGFR mRNA expression, ranking in words: greatest amount of reduction of EGFR mRNA expression in both cell types
EGFR mRNA [1]
  % Inhibition of EGFR mRNA (10 kb band): 61%
EGFR mRNA [2]
  % Inhibition of EGFR mRNA (10 kb band): 93%

## ISIS 12876: CCCCAGCAGCTCCCATTGGG; 5-methyl C; phosphorothioate; coding region, Ullrich 769-788 (all C 5-methyl, all phosphorothioate, sugars by position not given here)
EGFR protein
  reduction of EGFR protein production / EGFR synthesis: 90-98%
EGFR mRNA [3]
  reduction of EGFR mRNA expression, ranking in words: greatest amount of reduction of EGFR mRNA expression in both cell types
EGFR mRNA [1]
  % Inhibition of EGFR mRNA (10 kb band): 66%
EGFR mRNA [2]
  % Inhibition of EGFR mRNA (10 kb band): 97%

## ISIS 10565: CTCGGCTGACATTCCGGCAA; phosphorothioate 2'-deoxy; coding region, Ullrich 1761-1780 (antisense dC*dT*dC*dG*dG*dC*dT*dG*dA*dC*dA*dT*dT*dC*dC*dG*dG*dC*dA*dA)
EGFR mRNA [1]
  % Inhibition of EGFR mRNA (10 kb band): 33%
EGFR mRNA [2]
  % Inhibition of EGFR mRNA (10 kb band): 43%

## ISIS 12878: GAGGCGTTCTCCTUUCUCCA; 2'-O-propyl; phosphorothioate; coding region, Ullrich 2966-2985 (all phosphorothioate, sugars by position and methylation of C not given here; 2'-O-propyl modification, further chemistry not fully specified)
EGFR mRNA [1]
  % Inhibition of EGFR mRNA (10 kb band): 22%
EGFR mRNA [2]
  % Inhibition of EGFR mRNA (10 kb band): greater than 50%
EGFR mRNA [2]; listed as 12878
  % Inhibition of EGFR mRNA (10 kb band): 66%

## ISIS 10563: CCCCAGCAGCTCCCATTGGG; phosphorothioate deoxyoligonucleotide; coding region, Ullrich 769-788 (antisense dC*dC*dC*dC*dA*dG*dC*dA*dG*dC*dT*dC*dC*dC*dA*dT*dT*dG*dG*dG)
EGFR protein
  reduction of EGFR protein production / EGFR synthesis: 90-98%
EGFR mRNA [3]
  reduction of EGFR mRNA expression, ranking in words: greatest amount of reduction of EGFR mRNA expression in both cell types
EGFR mRNA [1]
  % Inhibition of EGFR mRNA (10 kb band): 61%
EGFR mRNA [2]
  % Inhibition of EGFR mRNA (10 kb band): 95%
